Results taken from patent US20250002785A1, “MULTIPURPOSE IMIDAZOLINE-BASED PROCESS CHEMICALS” (Baker Hughes Oilfield Operations LLC, priority 2023, published 2025).

Assay: hydrogen sulfide scavenging in sour Isopar M solvent
Conditions: sour Isopar M solvent with 4000 ppm H2S, scavenger dose per sample in the 5th table
Description: Further testing was performed to compare the hydrogen sulfide scavenging properties of an exemplary embodiment of the multipurpose process chemical compared to conventional scavengers.
A sour Isopar™ M solvent was obtained with 4000 ppm hydrogen sulfide (H2S). Samples were obtained by mixing the following with the sour Isopar™ M solvent:
The control and Samples V-A through V-F were stirred for twenty-four (24) hours at ambient temperature (˜71° F.). […] The table below summarizes the hydrogen sulfide scavenging observed for each sample: […]

With `CC1COC(=O)O1` (centres unmarked) [Sample V-C, propylene carbonate] as the compound, how does the “% H2S reduction” value (24 hours, ambient temperature) read?
Its value is 0%.

And the “H2S at 24 hours (ppm)” value (stirred 24 hours at ambient temperature (~71 F), control 3,500 ppm)?
Its value is 3,500 ppm.
